Entries after “also recorded” stand apart in the source; their conditions may differ.
What was measured:
[1] = tested on: rhytidoplasty (face lift); details: local TXA irrigation; first twenty-four hours after rhytidoplasty; cited from earlier work
scald injuries = test: Scald injuries treated with similar TXA dressings; format: in vivo, Human
Procedure: In particular, a child with a scald was treated with TIELLE™ containing TXA and the dressing was removed after ten days.

[2] = tested on: keratinocyte and fibroblast cell cultures; details: short exposure to even high concentrations of topical TXA; cited from earlier work
skin graft donor sites = test: Human patients, skin-graft donor site treated with TXA embedded dressings without a drain; format: in vivo
Procedure: Human patients were treated with TXA embedded dressings. A 50 cm^2 partial thickness wound was generated with a dermatome, thereby creating the skin-graft donor site. […] Non-adherent sterile dressings (TIELLE™) were contacted with the solution and placed directly on the donor site dressing.
The wounds were covered with a semipermeable film ([…]™) without a drain. Normally a dermal drain is placed through the film into contact with the wound with the intention of collecting fluid. A total of 300 ml in 5 days is normally collected (60 ml per day=[…]).

chronic ulcers = test: Chronic ulcers treated with similar TXA dressings; format: in vivo, Human

For NC[C@H]1CC[C@H](C(=O)O)CC1 [TXA, tranexamic acid], the bleeding [1] is listed as “decrease bleeding”, the drainage [1] is listed as “reduce drainage” and the reepithelization (scald injuries) is listed as “near complete reepithelization”. For the same compound, the tolerance in vitro [2] was “well tolerated”, the amount of exudate (skin graft donor sites; 50 cm^2 partial thickness skin-graft donor site, one to two grams TXA in 10 ml normal saline on TIELLE dressing, TEGADERM film, no drain) was “reducing significantly the amount of exudate; also recorded: greatly reduce exudate” and the bleeding (skin graft donor sites; skin graft donor sites, topical TXA) was “little bleeding”. For the same compound, the “adverse effect of TXA” value (skin graft donor sites; skin-graft donor site, topical TXA dressing) was “no adverse effect”, the “re-epithelialization of the wound” value (skin graft donor sites; skin-graft donor site, at removal of original dressing (12-14 days, 8-16 days)) was “re-epithelialized skin surface without the need for placement of a further dressing; also recorded: In most cases the wound was fully epithelialized; also recorded: rapid and complete or near complete re-epithelialization” and the reepithelization (chronic ulcers) was “near complete reepithelization”.

— patent publication US20250195714A1, “DEVICES AND METHODS OF TREATING WOUNDS” (University of Massachusetts, priority 2022, published 2025)
